This passage reports IC50 results from patent publication US20090143455A1, “Pyrazoles Useful in the Treatment of Inflammation” (priority 2005, published 2009).

This experiment addresses T1, purified human 15-lipoxygenase (Homo sapiens, UniProt P16050).
T1 sequence (P16050 1-662): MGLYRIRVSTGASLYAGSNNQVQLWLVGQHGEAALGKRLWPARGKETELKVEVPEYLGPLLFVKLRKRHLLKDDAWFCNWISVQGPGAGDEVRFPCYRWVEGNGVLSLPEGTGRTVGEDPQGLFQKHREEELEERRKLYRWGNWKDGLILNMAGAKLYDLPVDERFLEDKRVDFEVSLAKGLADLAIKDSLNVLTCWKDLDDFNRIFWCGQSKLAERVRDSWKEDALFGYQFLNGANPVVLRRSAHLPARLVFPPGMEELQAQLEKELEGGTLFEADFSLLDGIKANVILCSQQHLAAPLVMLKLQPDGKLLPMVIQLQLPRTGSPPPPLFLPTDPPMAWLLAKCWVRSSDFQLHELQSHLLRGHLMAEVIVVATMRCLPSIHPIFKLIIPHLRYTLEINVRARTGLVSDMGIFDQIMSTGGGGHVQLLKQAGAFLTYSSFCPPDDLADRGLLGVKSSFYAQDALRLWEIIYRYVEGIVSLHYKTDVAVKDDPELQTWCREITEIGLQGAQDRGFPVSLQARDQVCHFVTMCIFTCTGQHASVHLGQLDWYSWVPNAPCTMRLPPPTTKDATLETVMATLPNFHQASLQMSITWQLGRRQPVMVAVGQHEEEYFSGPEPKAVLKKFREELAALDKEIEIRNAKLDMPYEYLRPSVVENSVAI
The experiment is described as follows: 15-lipoxygenase inhibition assay (arachidonic acid oxidation, HPLC readout). Format: biochemical. The following applies: arachidonic acid substrate, room temperature. Here is the method:
The assay employed takes advantage of the ability of lipoxygenases to oxidize polyunsaturated fatty acids, containing a 1,4-cis-pentadiene configuration, to their corresponding hydroperoxy or hydroxyl derivatives. In this particular assay, the lipoxygenase was a purified human 15-lipoxygenase and the fatty acid was arachidonic acid. The assay is performed at room temperature (20-22° C.) and the following are added to each well in a 96-well microtiter plate:
a) 35 μL phosphate buffered saline […] (pH 7.4); b) inhibitor (i.e. compound) or vehicle (0.5 μl DMSO); c) 10 μL of a 10× concentrated solution of 15-lipoxygenase in PBS. […] The plate is then incubated for 10 minutes at room temperature; e) the enzymatic reaction is terminated by the addition of 100 μl MeOH; and f) the amount of 15-hydroperoxy-eicosatetraenoic acid or 15-hydroxy-eicosatetraenoic acid is measured by reverse phase HPLC.
A word on the IC50: it is the midpoint of a concentration-inhibition curve. `O=C(Nc1ccc(F)cc1F)c1cc(Cl)[nH]n1` [Example 5, 5-Chloro-N-(2,4-difluorophenyl)pyrazole-3-carboxamide] showed an IC50 of 265 nM.

In turn, `O=C(Nc1ccccc1OC(F)F)c1cc(Cl)[nH]n1` [Example 19, 5-Chloro-N-(2-difluoro-methoxyphenyl)pyrazole-3-carboxamide] showed an IC50 of 69 nM.

With `O=C(Nc1ccc(F)cc1)c1cc(Cl)[nH]n1` [Example 7, 5-Chloro-N-(4-fluorophenyl)pyrazole-3-carboxamide], the IC50 stood at 182 nM.

Compound `O=C(Nc1ccc(Cl)cc1)c1cc(Cl)[nH]n1` [Example 8, 5-Chloro-N-(4-chlorophenyl)pyrazole-3-carboxamide] yielded an IC50 of 78 nM.
